pIC50: −log10 of the molar value.
Experiments:
[1] = target: Hepatocyte growth factor receptor (Homo sapiens, UniProt P08581); assay: In Vitro c-Met and VEGFR-2 Enzyme Assay; details: pH 7.4; 37 °C
Procedure: (§1) Briefly, 20 μg/mL poly (Glu,Tyr) 4:1 (Sigma) was pre-coated in 96-well plates as a substrate. A 50 μL aliquot of 10 μmol/L ATP solution diluted in kinase reaction buffer (50 mmol/L HEPES [pH 7.4], 50 mmol/L MgCl2, 0.5 mmol/L MnCl2, 0.2 mmol/L Na3VO4, and 1 mmol/L DTT) was added to each well; 1 μL of various concentrations of indicated compounds diluted in 1% DMSO (v/v) (Sigma) was then added to each reaction well. DMSO (1%, v/v) was used as the negative control. The kinase reaction was initiated by the addition of purified tyrosine kinase proteins diluted in 49 μL of kinase reaction buffer. After incubation for 60 min at 37 °C, the plate was washed three times with phosphate-buffered saline (PBS) containing 0.1% Tween 20 (T-PBS). Anti-phosphotyrosine (PY99) antibody was then added. After a 30-min incubation at 37 °C, the plate was washed three times, and horseradishperoxidase-conjugated goat anti-mouse IgG was added. The plate was then incubated at 37 °C for 30 min and washed 3 times. A 100 μL aliquot of a solution containing 0.03% H2O2 and 2 mg/ml ophenylenediamine in 0.1 mol/L citrate buffer (pH 5.5) was added. The reaction was terminated by the addition of 50 μL of 2 mol/L H2SO4 as the color changed, and the plate was analyzed using a multi-well spectrophotometer (SpectraMAX 190, Molecular Devices) at 490 nm.

[2] = target: Vascular endothelial growth factor receptor 2 (Homo sapiens, UniProt P35968); assay: In Vitro c-Met and VEGFR-2 Enzyme Assay; details: pH 7.4; 37 °C
Procedure: as §1

Chain of Vascular endothelial growth factor receptor 2 (P35968 whole entry): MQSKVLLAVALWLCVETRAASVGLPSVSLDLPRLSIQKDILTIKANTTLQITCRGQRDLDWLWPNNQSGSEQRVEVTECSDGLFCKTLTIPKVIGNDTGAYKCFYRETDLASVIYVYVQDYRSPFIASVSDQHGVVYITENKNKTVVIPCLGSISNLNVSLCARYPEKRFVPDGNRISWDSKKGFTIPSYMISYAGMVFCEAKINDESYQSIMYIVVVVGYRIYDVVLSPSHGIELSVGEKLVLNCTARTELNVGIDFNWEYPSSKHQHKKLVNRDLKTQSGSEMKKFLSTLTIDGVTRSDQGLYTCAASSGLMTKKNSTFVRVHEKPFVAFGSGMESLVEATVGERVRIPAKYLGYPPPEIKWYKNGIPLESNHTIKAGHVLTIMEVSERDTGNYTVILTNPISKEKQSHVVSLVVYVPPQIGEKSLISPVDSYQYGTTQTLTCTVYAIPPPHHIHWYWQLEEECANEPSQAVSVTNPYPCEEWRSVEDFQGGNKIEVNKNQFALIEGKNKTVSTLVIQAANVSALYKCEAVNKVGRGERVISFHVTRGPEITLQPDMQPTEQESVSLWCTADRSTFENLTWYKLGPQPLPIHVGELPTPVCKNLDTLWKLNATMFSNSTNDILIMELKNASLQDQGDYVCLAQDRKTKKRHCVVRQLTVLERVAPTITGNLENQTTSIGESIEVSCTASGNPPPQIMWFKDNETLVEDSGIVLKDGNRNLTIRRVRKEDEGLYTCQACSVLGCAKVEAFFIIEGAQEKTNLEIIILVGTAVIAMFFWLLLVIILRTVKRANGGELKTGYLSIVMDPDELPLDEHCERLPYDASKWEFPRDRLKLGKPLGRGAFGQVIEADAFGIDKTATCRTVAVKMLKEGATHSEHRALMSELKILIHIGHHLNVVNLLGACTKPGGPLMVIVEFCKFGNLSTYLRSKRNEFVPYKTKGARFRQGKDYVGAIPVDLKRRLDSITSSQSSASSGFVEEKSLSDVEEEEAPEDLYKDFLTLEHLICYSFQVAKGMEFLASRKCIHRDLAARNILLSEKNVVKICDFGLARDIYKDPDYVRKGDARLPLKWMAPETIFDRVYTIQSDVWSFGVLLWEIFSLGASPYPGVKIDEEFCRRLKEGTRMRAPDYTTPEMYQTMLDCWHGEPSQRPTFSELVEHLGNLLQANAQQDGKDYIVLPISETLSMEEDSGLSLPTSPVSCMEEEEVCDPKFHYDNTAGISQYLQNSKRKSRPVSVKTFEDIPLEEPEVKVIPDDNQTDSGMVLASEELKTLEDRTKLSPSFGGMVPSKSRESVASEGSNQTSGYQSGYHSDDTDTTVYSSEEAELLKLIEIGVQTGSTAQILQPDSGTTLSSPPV
Chain of Hepatocyte growth factor receptor (P08581 whole entry): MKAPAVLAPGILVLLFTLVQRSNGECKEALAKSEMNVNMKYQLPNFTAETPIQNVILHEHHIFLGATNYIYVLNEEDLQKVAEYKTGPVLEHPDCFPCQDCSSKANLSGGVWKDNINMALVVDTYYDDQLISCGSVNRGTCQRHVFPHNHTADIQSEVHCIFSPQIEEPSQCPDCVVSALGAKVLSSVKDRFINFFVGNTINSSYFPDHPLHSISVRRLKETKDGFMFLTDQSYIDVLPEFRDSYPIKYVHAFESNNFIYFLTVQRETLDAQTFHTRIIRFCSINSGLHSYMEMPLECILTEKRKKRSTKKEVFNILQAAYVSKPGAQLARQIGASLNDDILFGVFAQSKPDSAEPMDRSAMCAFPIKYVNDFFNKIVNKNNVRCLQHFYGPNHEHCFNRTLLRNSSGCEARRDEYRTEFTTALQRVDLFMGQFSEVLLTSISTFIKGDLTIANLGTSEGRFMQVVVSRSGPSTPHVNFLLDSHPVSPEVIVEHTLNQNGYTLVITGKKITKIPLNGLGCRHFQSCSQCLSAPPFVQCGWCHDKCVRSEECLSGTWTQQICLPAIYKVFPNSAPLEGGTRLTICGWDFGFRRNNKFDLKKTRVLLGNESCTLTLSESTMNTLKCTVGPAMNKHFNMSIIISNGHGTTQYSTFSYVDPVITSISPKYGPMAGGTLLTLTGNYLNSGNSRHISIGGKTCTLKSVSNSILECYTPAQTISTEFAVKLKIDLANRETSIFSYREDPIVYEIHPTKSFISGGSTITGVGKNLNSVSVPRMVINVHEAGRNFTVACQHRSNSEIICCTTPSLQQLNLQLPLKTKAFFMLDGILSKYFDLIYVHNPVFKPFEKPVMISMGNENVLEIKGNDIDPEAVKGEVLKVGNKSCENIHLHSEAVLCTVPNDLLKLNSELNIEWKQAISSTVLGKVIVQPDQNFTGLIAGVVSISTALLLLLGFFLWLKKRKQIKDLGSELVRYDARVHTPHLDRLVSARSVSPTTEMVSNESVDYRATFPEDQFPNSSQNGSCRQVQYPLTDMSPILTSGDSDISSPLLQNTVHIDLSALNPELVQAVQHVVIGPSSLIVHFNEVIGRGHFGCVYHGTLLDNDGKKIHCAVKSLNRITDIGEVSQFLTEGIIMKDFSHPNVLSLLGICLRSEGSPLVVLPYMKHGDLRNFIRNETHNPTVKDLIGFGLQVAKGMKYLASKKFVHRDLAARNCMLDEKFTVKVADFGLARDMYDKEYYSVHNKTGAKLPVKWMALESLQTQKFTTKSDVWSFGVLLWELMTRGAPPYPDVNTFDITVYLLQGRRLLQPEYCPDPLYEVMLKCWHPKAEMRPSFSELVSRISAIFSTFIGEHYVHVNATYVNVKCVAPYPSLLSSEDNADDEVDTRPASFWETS

Cc1c(C(=O)Nc2ccc(Oc3ccnc(C(=O)NCCCN4CCOCC4)c3)c(F)c2)c(=O)n(-c2ccccc2)n1C [4-(4-(1,5-dimethyl-3-oxo-2-phenyl-2,3-dihydro-1H-pyrazole-4-carboxamido)-2-fluorophenoxy)-N-(3-morpholinopropyl) picolinamide (9h)]
pIC50 [1]: 6.60 | pIC50 [2]: 6.08

Cc1c(C(=O)Nc2ccc(Oc3ccnc(C(=O)NCCN4CCOCC4)c3)c(F)c2)c(=O)n(-c2ccccc2)n1C [4-(4-(1,5-dimethyl-3-oxo-2-phenyl-2,3-dihydro-1H-pyrazole-4-carboxamido)-2-fluorophenoxy)-N-(2-morpholinoethyl)picolinamide (9l)]
pIC50 [1]: 6.29 | pIC50 [2]: 6.07

Cc1c(C(=O)Nc2ccc(Oc3ccnc(C(=O)N4CCC(N5CCCCC5)CC4)c3)c(F)c2)c(=O)n(-c2ccccc2)n1C [N-(4-((2-([1,4'-bipiperidine]-1'-carbonyl)pyridin-4-yl)oxy)-3-fluorophenyl)-1,5-dimethyl-3-oxo-2-phenyl-2,3-dihydro-1H-pyrazole-4-carboxamide (9o)]
pIC50 [1]: 6.48 | pIC50 [2]: 6.11

CCN1CCN(C(=O)c2cc(Oc3ccc(NC(=O)c4c(C)n(C)n(-c5ccccc5)c4=O)cc3F)ccn2)CC1 [N-(4-((2-(4-ethylpiperazine-1-carbonyl)pyridin-4-yl)oxy-3-fluorophenyl)-1,5-dimethyl-3-oxo-2-phenyl-2,3-dihydro-1H-pyrazole-4-carboxamide (9j)]
pIC50 [1]: 6.01 | pIC50 [2]: < 6.00

Cc1c(C(=O)Nc2ccc(Oc3ccnc(-c4nncn4CCCN4CCOCC4)c3)c(F)c2)c(=O)n(-c2ccccc2)n1C [N-(3-fluoro-4-((2-(4-(3-morpholinopropyl)-4H-1,2,4-triazol-3-yl)pyridin-4-yl)oxy)phenyl)-1,5-dimethyl-3-oxo-2-phenyl-2,3-dihydro-1H-pyrazole-4-carboxamide (12c)]
pIC50 [1]: 6.77 | pIC50 [2]: 6.28

Cc1c(C(=O)Nc2ccc(Oc3ccnc(-c4nncn4CCCN(C)C)c3)c(F)c2)c(=O)n(-c2ccccc2)n1C [N-(3-fluoro-4-((2-(4-(3-dimethylaminopropyl)-4H-1,2,4-triazol-3-yl)pyridin-4-yl)oxy)phenyl)-1,5-dimethyl-3-oxo-2-phenyl-2,3-dihydro-1H-pyrazole-4-carboxamide (12b)]
pIC50 [1]: 6.82 | pIC50 [2]: 6.43

Cc1c(C(=O)Nc2ccc(Oc3ccnc(-c4nncn4CCCN4CCN(C)CC4)c3)c(F)c2)c(=O)n(-c2ccccc2)n1C [N-(3-fluoro-4-((2-(4-(3-(4-methylpiperazin-1-yl)propyl)-4H-1,2,4-triazol-3-yl)pyridin-4-yl)oxy)phenyl)-1,5-dimethyl-3-oxo-2-phenyl-2,3-dihydro-1H-pyrazole-4-carboxamide (12d)]
pIC50 [2]: 6.72
